Measured values published in patent publication US10287267B2, “Isoquinolin-3-yl carboxamides and preparation and use thereof” (Samumed, LLC, priority 2016, dated 2019).

Columns and labels:
[1] = tested on: Wnt pathway (Sp5-Luc reporter, TCF/LEF binding sites) in SW480 colon carcinoma cells; test: Screening assay for Wnt activity: Sp5-Luc reporter gene assay; format: cell-based, human; settings: Homo sapiens; Sp5-Luc reporter, SW480 cells, 36 to 48 hours;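 further: firefly luciferase luminescence read in stably transduced SW480 cells carrying the Sp5 promoter reporter with eight TCF/LEF sites, compounds given in 0.1% DMSO final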
Protocol: The screening assay for Wnt activity is described as follows.
Following incubation, 15 μl of BriteLite Plus luminescence reagent (Perkin Elmer) was added to each well of the 384-well assay plates. The plates were placed on an orbital shaker for 2 min and then luminescence was quantified using the Envision (Perkin Elmer) plate reader.

[2] = molecular target: recombinant DYRK1A kinase (Homo sapiens (Human), UniProt Q13627); test: DYRK1A kinase assay (Ser/Thr 18 peptide Z-lyte FRET); format: biochemical; settings: 30 μM ATP, 1 h room temperature;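 further: Read-out is the coumarin to fluorescein emission ratio, referenced to unphosphorylated (0%) and phosphorylated (100%) Ser/Thr 18 peptide controls, values from dose-response curves by non-linear regression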
recombinant GSK3β kinase = recombinant GSK3β kinase (Homo sapiens (Human), UniProt P49841); test: GSK3β kinase assay (Ser/Thr 09 peptide Z-lyte FRET); format: biochemical; settings: 46 μM ATP, 1 h room temperature;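 further: kinase activity read as coumarin to fluorescein emission ratio, 11-point threefold dilutions from 10 µM to 0.0003 µM in duplicate, unphosphorylated and phosphorylated peptide as 0% and 100% controls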
[3] = tested on: Tau phosphorylation at Ser396 (pSer396); test: Tau phosphorylation assay (pSer396 ELISA / western blot) in SH-SY5Y cells; format: cell-based, human; settings: Homo sapiens; SH-SY5Y cells, overnight (16-18 h) exposure; read-out: pSer396 Tau EC50;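 further: EC50 for reduction of Tau pSer396 in lysed cells, measured by colorimetric ELISA or chemiluminescent western blot, both using the same pSer396 antibody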
[4] = tested on: SW480 colon carcinoma cells; test: Cell viability assay (CellTiter-Glo); format: cell-based, human; settings: Homo sapiens, 96 h; SW480 cells, CellTiter-Glo, four days incubation
[5] = tested on: α-smooth muscle actin (αSMA) positive LL29 cells; test: Inhibition of fibrotic process: αSMA in TGF-β1 treated primary human fibroblasts from IPF patients; format: cell-based; settings: Homo sapiens, Fibroblast; for EC50: 96 h, Table 8, LL29 fibroblasts from IPF patients, TGF-β1 20 ng/mL, 4 days, dose-response 10 μM to 0.94 nM; for inhibition at 10 µM: read-out: percent value in parentheses beside EC50 >10 μM;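 on all read-outs here: controls were TGF-β1 stimulated wells with DMSO vehicle (positive) and cells given DMSO alone (negative), cultured in F12 medium with 1% fetal bovine serum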
IL-6 = IL-6 inhibition in LPS-stimulated human peripheral blood mononuclear cells (HTRF); format: cell-based; settings: Homo sapiens, PBMC; for EC50: Table 9, huPBMCs, LPS 50 ng/mL, 22 hours, dose-response starting from 10 μM; for inhibition at 10 µM: read-out: percent value in parentheses beside EC50 >10 μM;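 on all read-outs here: IL-6 detected by HTRF with an XL665- and Cryptate-labelled anti-IL-6 antibody pair, samples run in duplicate, EC50 obtained from a four-parameter Levenberg-Marquardt curve fit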
Protocol: After 22 hour incubation, a mixture of anti-IL6 XL665 and anti-IL-6 Cryptate diluted in reconstitution buffer (Catalog #62IL6PEC, Cisbio Inc., Bedford, Mass.) was added to each well. […] All samples were processed in duplicate. […] EC50 was determined using software generated by Dotmatics Limited (Windhill Bishops Stortford Herts, UK) using the Levenberg-Marquardt 4 parameter fitting procedure with finite different gradients.

Chain of recombinant GSK3β kinase (P49841 whole entry): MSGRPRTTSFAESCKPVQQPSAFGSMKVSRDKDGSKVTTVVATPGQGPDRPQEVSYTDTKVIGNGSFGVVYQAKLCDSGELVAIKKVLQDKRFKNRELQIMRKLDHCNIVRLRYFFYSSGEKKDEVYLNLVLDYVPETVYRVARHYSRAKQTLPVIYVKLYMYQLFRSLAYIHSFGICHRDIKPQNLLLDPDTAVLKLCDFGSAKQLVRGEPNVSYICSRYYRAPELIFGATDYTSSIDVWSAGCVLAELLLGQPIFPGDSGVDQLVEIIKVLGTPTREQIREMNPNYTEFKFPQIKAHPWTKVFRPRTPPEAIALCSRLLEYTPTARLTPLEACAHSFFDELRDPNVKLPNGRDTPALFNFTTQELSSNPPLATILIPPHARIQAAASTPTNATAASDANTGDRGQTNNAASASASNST

Row | SMILES | EC50 [1] [nM] | EC50 [2] [nM] | EC50 (recombinant GSK3β kinase) [nM] | EC50 [3] [nM] | EC50 [4] [nM] | EC50 [5] [nM] | EC50 (IL-6) [nM] | inhibition at 10 µM (IL-6) [%] | inhibition at 10 µM [5] [%]
1 | Cn1cc(-c2ccc3cnc(NC(=O)C4CC5(CCN(CCF)CC5)C4)cc3c2)cn1 [Compound 301, 7-(2-Fluoroethyl)-N-(6-(1-methyl-1H-pyrazol-4-yl)isoquinolin-3-yl)-7-azaspiro[3.5]nonane-2-carboxamide] | 467 | 2 | 10 | 108 | 550 | 4810 | 393 |  | 
2 | CN1CCN(C(=O)Nc2cc3cc(-c4cnn(C)c4)ccc3cn2)CC1 [Compound 316, 4-Methyl-N-(6-(1-methyl-1H-pyrazol-4-yl)isoquinolin-3-yl)piperazine-1-carboxamide] | 2840 | 4.2 | 509 | 8780 | 2340 | 1080 | 395 |  | 
3 | CCn1cc(-c2ccc3cnc(NC(=O)CN4CCCC4)cc3c2)cn1 [Compound 285, N-(6-(1-Ethyl-1H-pyrazol-4-yl)isoquinolin-3-yl)-2-(pyrrolidin-1-yl) acetamide] | 3400 | 44.2 | 149 | 1580 | 7020 | 1470 | 2270 |  | 
4 | CO[C@H]1CC[C@H](C(=O)Nc2cc3cc(-c4nnc(C)s4)ccc3cn2)CC1 [Compound 885, trans-4-Methoxy-N-(6-(5-methyl-1,3,4-thiadiazol-2-yl)isoquinolin-3-yl) cyclohexane-1-carboxamide] | 4480 | 34.6 | 46 | 878 | 7720 | 2620 | > 10000 | 7 | 
5 | Cn1ncc(-c2ccc3cnc(NC(=O)C4CCOCC4)cc3c2)c1CO [Compound 984, N-(6-(5-(Hydroxymethyl)-1-methyl-1H-pyrazol-4-yl)isoquinolin-3-yl) tetrahydro-2H-pyran-4-carboxamide] | 2990 | 5.5 | 236 | 2100 | 3130 | 1240 | 8760 |  | 
6 | CN(CC(=O)Nc1cc2cc(-c3cnc4n3CCNC4)ccc2cn1)C1CCC1 [Compound 1031, 2-(Cyclobutyl(methyl)amino)-N-(6-(5,6,7,8-tetrahydroimidazo[1,2-a]pyrazin-3-yl)isoquinolin-3-yl)acetamide] | 3970 | 70.4 | 380 | 969 | 3890 | > 10000 | > 10000 | 2 | 39.2
7 | Cc1ncc(-c2ccc3cnc(NC(=O)C4CC(F)(F)C4)cc3c2)n1C [Compound 268, N-(6-(1,2-Dimethyl-1H-imidazol-5-yl)isoquinolin-3-yl)-3,3-difluorocyclobutanecarboxamide] | 2070 | 5.8 | 17 | 478 | 2770 | 73 | 8170 |  | 
8 | O=C(Nc1cc2cc(-c3cnco3)ccc2cn1)C1CCOCC1 [Compound 976, N-(6-(Oxazol-5-yl)isoquinolin-3-yl)tetrahydro-2H-pyran-4-carboxamide] | 2960 | 6.1 | 146 | 536 | 3880 | 1170 |  |  | 
9 | Cn1cc(-c2ccc3cnc(NC(=O)OC(C)(C)C)cc3c2)cn1 [Compound 1025, tert-Butyl (6-(1-methyl-1H-pyrazol-4-yl)isoquinolin-3-yl)carbamate] | > 10000 | 78 | 100 | > 10000 |  | > 10000 | > 10000 | 13.6 | 31.4
10 | Cn1cc(-c2ccc3cnc(NC(=O)CN4CCC(C(F)F)CC4)cc3c2)cn1 [Compound 295, 2-(4-(Difluoromethyl)piperidin-1-yl)-N-(6-(1-methyl-1H-pyrazol-4-yl)isoquinolin-3-yl)acetamide] | 2570 | 2.8 | 20 | 430 |  | 4460 | > 10000 | 5.9 | 
